Measured values from patent publication US20260297065A1, “AROMATIC SUBSTITUENT-CONTAINING (HETERO) ARYL-IMIDAZOLE COMPOUND, AND PREPARATION METHOD THEREFOR AND USE THEREOF” (OPEN SOURCE THERAPEUTICS, priority 2022, published 2026).
Where two headings read alike, the source gives them in different places.

Key:
[1] = molecular target: T1, soluble epoxide hydrolase (sEH) (Homo sapiens, UniProt P34913); assay: in vitro biochemical activity test, sEH enzyme inhibition with EET substrate (LC-MS); conditions: 90 min pre-incubation at room temperature, 60 min reaction
T1 sequence (P34913 1-555): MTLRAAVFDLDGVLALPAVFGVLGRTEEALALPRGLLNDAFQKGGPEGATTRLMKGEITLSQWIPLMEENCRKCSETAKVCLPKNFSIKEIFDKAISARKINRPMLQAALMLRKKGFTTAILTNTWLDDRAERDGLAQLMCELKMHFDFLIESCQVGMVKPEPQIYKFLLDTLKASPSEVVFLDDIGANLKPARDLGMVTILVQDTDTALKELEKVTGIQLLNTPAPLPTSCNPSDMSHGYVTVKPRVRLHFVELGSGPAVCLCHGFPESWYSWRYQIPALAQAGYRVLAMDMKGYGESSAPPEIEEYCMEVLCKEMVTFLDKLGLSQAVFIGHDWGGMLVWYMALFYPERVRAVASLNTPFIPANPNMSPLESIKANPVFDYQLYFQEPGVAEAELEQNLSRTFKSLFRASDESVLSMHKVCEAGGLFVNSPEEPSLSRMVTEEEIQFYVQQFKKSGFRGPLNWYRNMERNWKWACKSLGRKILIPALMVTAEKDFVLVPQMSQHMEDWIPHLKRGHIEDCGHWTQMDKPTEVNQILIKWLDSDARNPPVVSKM

[2] = in vivo pharmacokinetics in male ICR mice, IV and PO; set-up: species or system mouse (male ICR mice); conditions: for clearance / half-life / AUC: mouse plasma; for clearance: read-out: intravenous injection administration (IV) C1; for AUC: read-out: Oral administration by gavage (PO) AUC; for bioavailability: plasma, mouse, PO 2 mpk, IV 1 mpk
Source text: This example relates to the evaluation of the pharmacokinetic properties of (hetero)aryl imidazole compounds containing an aromatic substituent. Specifically, this experiment evaluated the in vivo pharmacokinetic properties of some of the (hetero)aryl imidazole compounds with an aromatic substituent synthesized in Example 1 in mice under intravenous (IV) and oral (PO) administration.
The animals used in this experiment were male ICR mice, which were obtained from Beijing Weitonglihua Experimental Animal Technology Co., Ltd. IV/PO administration was performed with a single drug or a combination of drugs (Cassette, no more than five drugs), the solvent was 5% DMSO+10% Solutol+85% Saline, the compound concentration was 0.2 mg/mL, and the IV/PO administration volume was 5/10 mL/kg, respectively. The animals in the oral administration group were fasted overnight before administration and fed 4 hours after administration. After administration, blood was collected from the cheek at the set time of the experiment. About 50 μL was collected for each sample and anticoagulated with sodium heparin. After collection, the blood was placed on wet ice and centrifuged within 1 hour to separate the plasma (6000 rpm, 3 minutes, 2-8° C.). Plasma samples were stored at −80° C. before analysis. The plasma samples were diluted and analyzed by LC-MS/MS to determine the blood drug concentration data in the samples at different time points, and Phoenix WinNonlin 8.2.0 was used to calculate the pharmacokinetic parameters.

[3] = 1 mg/kg, IV, 1 mpk, read-out: intravenous injection administration (IV) T1/2 (converted)
[4] = 2 mg/kg, PO, 2 mpk, read-out: Oral administration by gavage (PO) T1/2 (converted)

IC50 [1] [nM]	clearance ([2]; 1 mg/kg, IV, 1 mpk) [mL/min/kg]	half-life [2, 3] [h]	AUC ([2]; 2 mg/kg, PO, 2 mpk) [ng·h/mL]	half-life [2, 4] [h]	bioavailability ([2]; 2 mg/kg) [%]	Compound
0.065	1.3	5.9	19600	6.4	76	Cc1nc(N)ncc1-c1cc2nc(-c3ccc(C(F)(F)F)cc3)[nH]c2c(F)c1F [Compound 8, 5-(4,5-difluoro-2-(4-(trifluoro-methyl)phenyl)-1H-benzo[d]imidazol-6-yl)-4-methylpyr-imidine-2-amine]
	1	8.5	26100	10.2	83	Nc1cc(Cl)c(-c2cc3[nH]c(-c4ccc(C(F)(F)F)cc4)nc3cc2F)cn1 [Compound 61, 2-(4-(trifluoromethyl)phenyl)-6-(6-amino-4-chloropyridin-3-yl)-5-fluoro-1H-benzo[d] imidazole]
